Patent publication US7205119B2, “HA-1 antigen” (Rijksuniversiteit te Leiden, priority 1997, dated 2007)
Where no end group is shown, it is not given here.

Legend:
[1] = system: recombinant HLA-A2.1 and b2-microglobulin; experiment: HLA-A2.1 peptide binding assay (inhibition of binding of fluorescent standard peptide, cell free); set-up: species or system human; conditions: for HLA-A2.1 binder class: class assigned from IC50
Experimental: (§1) FIG. 4a. Binding of HA-1^H and HA-1^R peptides to HLA-A2.1. The binding of HA-1^H and HA-1^R peptides were assayed for their ability to inhibit the binding of fluorescent peptide […] (SEQ ID NO: 17) to recombinant HLA-A2.1 and b2-microglobulin in a cell free peptide binding assay. One representative experiment is shown. […] (FIG. 4b.) Reconstitution assay with different concentrations of synthetic HA-1^R peptide with HA-1 specific T cells. The HA-1^R peptide was titrated and preincubated with T2 cells. Three HA-1 specific T cell clones, 5W38, 3HA15 and clone 15 were added and a 4 hr ^51Cr-release assay was performed. Background lysis of T2 by the CTL in the absence of any peptide was for 3HA15 4%, for clone 15 10% and for 5W38 2%. Positive control lysis was for 3HA15 46%, for clone 15 47% and 5W38 48%.
Reconstitution and HLA-A2.1 binding assays were performed to determine the capacity of HA-1^R peptide […] (SEQ ID NO: 5) to bind to HLA-A2.1 and to be recognized by the HA-1 specific T cell clones. […] Different concentrations of […] (SEQ ID NO: 5) were tested in a ^51Cr-release assay with three HA-1 specific T cell clones.
HLA-A2.1 peptide binding assay. A quantitative assay for HLA-A2.1 binding peptides based on the inhibition of binding of the fluorescent labeled standard peptide Hbc 18–27 F to C6 ([…]) (SEQ ID NO: 17) to recombinant HLA-A2.1 protein and B2-microglobulin was used^26,27. In short, HLA-A2.1 concentrations yielding approximately 40–60% bound fluorescent standard peptide were used with 15 pmol/well (150 nM) B2-microglobulin (Sigma). Various doses of the test peptides were coincubated with 100 fmol/well (1 nM) fluorescent standard peptide, HLA-A2.1 and B2-microglobulin for 1 day at room temperature in the dark in a volume of […] in assay.buffer. The percent of MHC-bound fluorescence was determined by gel filtration and the 50% inhibitory dose was deduced for each peptide using one-site competition non-linear regression analysis with the prismgraph software. […]

[2] = system: HA-1 specific T cell clones 3HA15, clone 15 and 5W38 (T2 target cells); experiment: 51Cr-release reconstitution assay (CML assay) with peptide-loaded T2 cells and HA-1 specific CTL clones; assay type: cell-based, human
From the text: FIG. 2. Sequencing of mH HA-1 peptide by tandem mass spectrometry. (FIG. 2a.) Collision activation dissociation mass spectrum of peptide candidate with m/z of 513. (FIG. 2b.) Reconstitution assay with different concentrations of synthetic mH HA-1 peptide with three HA-1 specific T cell clones, 3HA15, clone 15 and 5W38. Background lysis of T2 by the CTL in the absence of any peptide was for 3HA15 4%, for clone 15 10% and for 5W38 2%. Positive control lysis was for 3HA15 46%, for clone 15 47% and 5W38 48%.
as §1, with “48%. […]” for “48%.”

| Sequence | HLA-A2.1 binder class [1] | reconstitution of the HA-1 epitope by synthetic peptide ([2]; results not shown) | fold lower binding affinity for HLA-A2.1 versus HA-1^H peptide [1] | peptide concentration needed for recognition relative to that for the HA-1^H peptide ([2]; clone 3HA15 only (one out of three clones showed recognition)) |
| --- | --- | --- | --- | --- |
| VLHDDLLEA | high affinity binders |  |  |  |
| YXTDRVMTV [peptide candidate m/z 550; X stands for Isoleucine or Leucine] |  | not able to reconstitute the HA-1 epitope |  |  |
| VLRDDLLEA | intermediate binders |  | 10 fold | 1000 times |
